Series [1] has as its system C57Bl/6 mice. Description: Forced swim test (FST), depression-like behavior. The following applies: for immobility time in FST after FLX treatment: 12 mo, FLX 80 mg/L in drinking water for 21 days. Format: in vivo, mouse. Here is the method:
[…]; Sigma-Aldrich, Sweden) from gestational day (GD) 14 until delivery. The delivery day was recorded as postnatal day (PND) 0. The litters were culled to 4 pups/litter at PND3. The pups were weighed at PND3, 7, 14, and 21. At weaning (PND21), the mice were implanted subcutaneously with sterile radio-frequency identification (RFID) tags (Trovan Unique 100A, Trovan Ltd., UK) under brief isoflurane anesthesia. The transponders allowed unambiguous identification of animals and were also used for monitoring the activity in homecage environment. After implantation, the pups were redistributed to new cages so that each cage would house a maximum of 5 mice originating from different litters, and the distribution was maintained throughout the study. The mice were kept in an animal facility under 12 h:12 h light-dark (LD) cycle (light intensity 50 lx; light on at 6 a.m.) at constant temperature (22±1° C.) and humidity (50%±5%). The circadian zeitgeber (“time-giver”) time (ZT) 0 corresponds to the subjective sunrise, i.e., the onset of the light phase.
Adult male mice aged 7 weeks, 3 mo, or 12 mo were tested for depression-like behavior in the forced swim tests (FST). Briefly, the animals were individually placed in glass cylinders (24 cm height, 12 cm diameter) filled with water (23.5° C.) to a depth of 16 cm. The animals were exposed to a 15 min pretest followed by a 6 min test 24 h later. Test sessions were videotaped and analysed offline by one investigator who was blind to the treatment and exposure conditions. Immobility was defined as passive floating for at least 2 s. After documenting depression-like behavior at the age of 12 mo, the animals were treated with fluoxetine (FLX; a selective serotonin re-uptake inhibitor antidepressant) dissolved in drinking water (80 mg/L) for 21 days before repeating the test. In addition to FST, depression-like behavior was tested in a tail-suspension test (TST), as described below.

The test system of series [2] is C57Bl/6 mice. In words: Tail-suspension test (TST). Format: in vivo, mouse. The conditions noted are these: prenatal DEX exposure; mice aged 12 mo. Here is the method: The delivery day was recorded as postnatal day (PND) 0. The litters were culled to 4 pups/litter at PND3. The pups were weighed at PND3, 7, 14, and 21. At weaning (PND21), the mice were implanted subcutaneously with sterile radio-frequency identification (RFID) tags (Trovan Unique 100A, Trovan Ltd., UK) under brief isoflurane anesthesia. The transponders allowed unambiguous identification of animals and were also used for monitoring the activity in homecage environment. After implantation, the pups were redistributed to new cages so that each cage would house a maximum of 5 mice originating from different litters, and the distribution was maintained throughout the study. The mice were kept in an animal facility under 12 h:12 h light-dark (LD) cycle (light intensity 50 lx; light on at 6 a.m.) at constant temperature (22±1° C.) and humidity (50%±5%). The circadian zeitgeber (“time-giver”) time (ZT) 0 corresponds to the subjective sunrise, i.e., the onset of the light phase.
For TST, the mice were allowed to acclimatize in the testing room for at least 30 min before the experiment. The mice were suspended by the tail 15 cm above the table (using adhesive tape placed approx. 2 cm from the base of the tail). Soft padding was provided in order to prevent injuries in case the animal escaped or fell down because of tape failure. After 6 min, the animal were released and placed in the homecage. […]

The nature of series [3]: Corticosterone metabolites in feces. The conditions noted are these: prenatal DEX exposure, 12 mo. Format: in vivo, mouse. Here is the method:
The circadian pattern of GC secretion at 12 mo was investigated using a minimally invasive approach. To this end, spontaneous fecal boli were collected between ZT1-2 and ZT12-14 (i.e., immediately after the transition between the light and dark phases of the LD cycle). The feces were collected in sterile Eppendorf tubes and stored at −80° C. until further processing. Samples from each mouse were collected on two occasions (7 day interval between samplings) and the measurements for each mouse were averaged before analysing the differences across the LD cycle. The concentration of corticosterone metabolites in dry fecal extracts was measured by enzyme immunoassay according to manufacturer's instructions (DetectX™, Arbor Assays, Ann Arbor, […]., USA).

In the next series the test system is Bmal1. Description: Bmal1 expression in primary fibroblast cultures from control and DEX-exposed mice (qPCR). The following applies: fibroblasts from prenatally DEX-exposed mice aged 6 mo; synchronised with 1 μM DEX. In kind it is cell-based, mouse. Here is the method: (§1) Tissue samples (˜0.25 cm^2) were harvested from the ear of adult (6 mo) control and DEX-exposed mice under terminal anesthesia. The tissue was rinsed in Hank's Balanced Salt Solution (HBSS) (Life Technologies Europe BV, Stockholm, Sweden), then minced with sterile razor blade into Collagenase (Type XI-S) (Sigma-Aldrich, Sweden) (30 min at 37° C.). After digestion, 3 ml of DMEM Medium (Life Technologies) supplemented with 10% Fetal Bovine Serum and 1% Penicillin/Streptomycin (Life Technologies) was added to a 6 cm plate and the samples were incubated at 37° C. for at least 6 days. After passaging (0.05% Trypsin-EDTA; Invitrogen), the cells were plated in 12 multi-well plates in MEF medium (DMEM Medium+10% FBS+1% pen/strep) at a density of at least 50 k/cm^2. […] The cells were then collected between 6 and 36 h after synchronisation. The relative expression of Bmal1 was assessed by qPCR with Gapdh as housekeeping gene as described in Example 1 (Table 2: SEQ ID NO 5 and 6, and 1 5 and 2, respectively).

Another series relates to Per2 promoter. In words: Luciferase reporter assay in Per2::Luc primary mouse fibroblasts after DEX synchronisation. Format: cell-based. The following applies: 1 μM DEX single pulse. Here is the method: The generation of knock-in mice expressing firefly luciferase under the control of Per2 promoter (Per2::Luc) has been described previously (Yoo et al. 2004).
as §1, with “samples (about 0.25” for “samples (˜0.25”, “and Dex-exposed” for “and DEX-exposed”, “The number of photons emitted by each culture dish was counted over 1 minute every 10 min (time resolution: 6 data points/h). The time series” for “The cells”, “were further analyzed by means” for “were then collected between 6 and 36 h after synchronisation. The relative expression”, “of cosinor analysis” for “of Bmal1 was assessed by qPCR with Gapdh as housekeeping gene”, “Example 4.” for “Example 1 (Table 2: SEQ ID NO 5 and 6, and 1 5 and 2, respectively).”
(In a reporter assay the amount or activity of a reporter protein is the signal.)

Another series has as its system BMAL1, PER1 and PER2. In words: Clock gene mRNA expression in primary human fibroblasts after DEX synchronisation (qPCR). Format: cell-based. The following applies: 1 μM DEX; fibroblasts from healthy subjects; 6-36 h after synchronisation. Here is the method: A skin biopsy (about 5×2 mm) was collected from the internal aspect of the arm under sterile conditions after local anesthesia using EMLA patches (AstraZeneca, Sodertalje, Sweden). The wound was then covered with a sterile patch, and a small scar is formed typically within […]. The tissue sample was quickly transferred to ice-cold HBSS (Life Technologies Europe BV, Stockholm, Sweden) and minced with a sterile razor blade into Collagenase (Type XI-S) (Sigma-Aldrich, Sweden) (30 min at 37° C.). After digestion, 3 ml of DMEM Medium (Life Technologies) supplemented with 10 mM Hepes buffer, sodium pyruvate, non-essential amino acid mixture, glutamax, 20% Fetal Bovine Serum, and 1% Penicillin/Streptomycin (all supplements were from Life Technologies) was added to a 6 cm plate and the samples were incubated at 37° C. until the fibroblasts reached confluence (typically 3-4 weeks). The confluent fibroblast cultures were passaged (0.05% Trypsin-EDTA; Invitrogen) then plated in 12 multi-well plates at a density of at least 50 k/cm^2 in the same medium as used above. […] The cells were collected between 6 and 36 h after synchronisation. The relative mRNA expression of BMAL1, PER1 and PER2 (Table 2: SEQ ID NO 19 and 20) was assessed by qPCR with HP RT (Table 2: SEQ ID NO 13 and 14) as housekeeping gene. The qPCR procedure is described in Example 1.
For orientation: Quantitative PCR measures a nucleic acid by following its amplification.

The subject of series [4] is C57Bl/6 mice. Description: Homecage spontaneous activity (cosinor, periodogram, detrended fluctuation analysis).
Experimental: The spontaneous activity of mice aged 1, 3, 5, and 12 mo (N=7-8/group) was recorded using the TraffiCage™ system (NewBehavior, Zurich, Switzerland). Briefly, the system consists of an array of radio frequency (RF) antennas placed under the cage with group-housed, freely moving mice. The antennas read the RFID tags and provide an approximate location of each animal with a time resolution of 20 ms. The time interval during which an animal is detected constantly by the same antenna is defined as a “visit.” When an animal changes location enough to be detected by another antenna, a new visit is recorded. Each visit is described by the start time and duration. For long recordings, the number of visits is virtually equal to the number of transitions, and can be used as activity count. The time series of visits are exported as ASCII files and analysed using custom routines developed in Matlab™ R2013b (The MathWorks™, Natick, Md., USA).
The mice were housed in a climate-controlled, isolated room for a period of 6 to 7 weeks, with minimal interactions with human experimenters (except for changing the cage and to replenish food and water, which occurred at random times throughout the experiment). The synchronisation of activity monitoring with the LD cycle was ensured by using a remote control device (TellStick™, Telldus Technologies AB, Lund, Sweden) operated by the computer running TraffiCage™ control software. To minimize the effects of novelty and possible interference from circadian rhythm entrainment, the baseline measurements were derived based on 3 LD cycles after an acclimation period of at least 3 LD cycles.
The analysis of circadian rhythmicity consisted of rhythmometry by means of cosinor analysis. […] We next analysed spontaneous activity by detrended fluctuation analysis (DFA). The method is based on linear regression analysis of the residual variance of the time series against the time scale used for detrending on double-logarithmic plots. The slope of a linear regression in double-logarithmic plot translates into a scaling exponent, and describes the long-term autocorrelation patterns embedded in the time series.
The test system of the next series is mice. In words: MeHg model of developmental neurotoxicity, depression-like behavior. In kind it is in vivo, mouse.
Series [5] relates to hippocampal dentate gyrus. The following applies: chronic FLX; for effect of FLX treatment on neurogenesis: 12 mo.

“Also recorded” adds a separate entry of the source. Where two headings read alike, the source gives them in different places.

For `C[C@@H]1C[C@H]2[C@@H]3CCC4=CC(=O)C=C[C@]4(C)[C@@]3(F)[C@@H](O)C[C@]2(C)[C@@]1(O)C(=O)CO` [DEX, dexamethasone], the “immobility time in FST vs controls” value in the series with C57Bl/6 mice [1] (prenatal DEX 0.05 mg/kg/day s.c. from GD14 until delivery, male offspring at 12 mo) is “increased”. For the same compound, in the series on C57Bl/6 mice [2], the “depression-like phenotype in tail suspension test” value is reported as “reconfirmed”. For the same compound, in [3], the “levels of corticosterone metabolites in the feces vs controls” value is listed as “lower levels”. In addition, in series [3] (ZT1-2 vs ZT12-14), the “circadian fluctuations in GC secretion” value is “did not show significant circadian fluctuations”. Further, the “oscillations in Bmal1 expression vs control mice” value with Bmal1 is “attenuated oscillations”. Further, the “time over which oscillations can be detected after initial DEX synchronisation” value in the series with Per2 promoter is not above 10 days. In the series on BMAL1, PER1 and PER2, the “period of oscillations in clock gene mRNA expression after DEX synchronisation” value is reported as “about 24 h”. Also, the “scaling coefficient of spontaneous activity (detrended fluctuation analysis)” value in the series on C57Bl/6 mice [4] (one DEX-exposed mouse (FIG. 6D), control mouse 0.82) was 0.88. Also, the “amplitude of circadian rhythm (cosinor), baseline vs forced synchronisation” value in the series on C57Bl/6 mice [4] (prenatal DEX exposure) is “no significant difference”. In addition, the “circadian period of spontaneous activity” value in the series with C57Bl/6 mice [4] (prenatal DEX exposure, 12 months old, constant steady entrainment) is reported as “shorter”. The “amplitude of circadian rhythm (cosinor) at baseline vs controls” value with C57Bl/6 mice [4] (prenatal DEX exposure, LD cycle baseline) is on record as “larger”. The “scaling exponent, free-running vs circadian entrainment conditions” value in the series with C57Bl/6 mice [4] (prenatal DEX exposure, all ages investigated) is “significant fluctuations”. The “acrophase, baseline vs forced synchronisation” value with C57Bl/6 mice [4] (prenatal DEX exposure, mice aged 3 mo and older) is listed as “did not vary”.

With `CNCCC(Oc1ccc(C(F)(F)F)cc1)c1ccccc1` (stereo not drawn) [FLX, fluoxetine], the “reversal of depression-like behavior by antidepressant treatment” value with C57Bl/6 mice [1] (DEX model, middle-aged mice (12 months)) was “not reversed”; in the series on mice (young adults (2-3 months)), “reversed”. In addition, the entries for the “immobility time in FST after FLX treatment” value with C57Bl/6 mice [1] (DEX-exposed mice) and with C57Bl/6 mice [1] (control mice) were “not altered” and “decreases”, respectively. Also, the “effect of FLX treatment on neurogenesis” value in series [5] (DEX-exposed mice) was “did not have any significant effect; also recorded: has no effect”; in series [5] (controls), “reduces”. For the same compound, the “number of DCX+ cells after FLX” value in series [5] (middle-aged controls) was “decreased”.

On to `[CH3][Hg][Cl]` [MeHg, methylmercury], for which the “depression-like behavior after developmental exposure” value with mice is given as “detectable in young adults”.

Source of the values: patent US10731216B2, “Methods and compositions for biomarkers of depression and pharmacoresponse” (priority 2014, dated 2020).
